In patent US9968587B2, “Heterocycle analogs of CAI-1 as agonists of quorum sensing in vibrio” (THE TRUSTEES OF PRINCETON UNIVERSITY, priority 2013, dated 2018):
Like-named read-outs stand apart in the source and are kept apart here.

What was measured:
HapR = assay: Western blot analysis of HapR production; format: cell-based, Vibrio cholerae
From the text: (§1) In vivo, HapR is a transcription factor that functions as one of two master QS regulators in V. cholerae. Agonism of CqsS leads to increased production of HapR and HapR, in turn, drives the high-cell density gene expression program, which leads to repression of the expression of genes required for virulence and biofilm formation. […] Conversely, production the major V. cholerae virulence factor, TcpA, (toxin-co-regulated pilis protein subunit A), is repressed by both CAI-1 and compound 18.
(§2) Overnight cultures of V. cholerae CqsA-LuxQ—were diluted 1000-fold in AKI medium containing the indicated compounds. The cultures were grown under static conditions at 37° C. for 4 h and then were shaken for 18 h at 37° C. Cells were collected by centrifugation, TcpA and HapR from different samples were analyzed by Western Blot as described in references.

TcpA = assay: Western blot analysis of TcpA production; format: cell-based, Vibrio cholerae; conditions: FIG. 3, DMSO control
From the text: as §1, §2

[1] = target: V. cholerae CqsS receptor (Vibrio cholerae serotype O1, UniProt Q9KM66); assay: CqsS agonist bioassay (V. cholerae reporter strain MM920, bioluminescence); conditions: for EC50: mean of triplicate analyses; for QS agonist potency (in words) / level of QS activation (in words): CqsS agonist bioassay
Sequence of V. cholerae CqsS receptor (Q9KM66 whole entry, looked up): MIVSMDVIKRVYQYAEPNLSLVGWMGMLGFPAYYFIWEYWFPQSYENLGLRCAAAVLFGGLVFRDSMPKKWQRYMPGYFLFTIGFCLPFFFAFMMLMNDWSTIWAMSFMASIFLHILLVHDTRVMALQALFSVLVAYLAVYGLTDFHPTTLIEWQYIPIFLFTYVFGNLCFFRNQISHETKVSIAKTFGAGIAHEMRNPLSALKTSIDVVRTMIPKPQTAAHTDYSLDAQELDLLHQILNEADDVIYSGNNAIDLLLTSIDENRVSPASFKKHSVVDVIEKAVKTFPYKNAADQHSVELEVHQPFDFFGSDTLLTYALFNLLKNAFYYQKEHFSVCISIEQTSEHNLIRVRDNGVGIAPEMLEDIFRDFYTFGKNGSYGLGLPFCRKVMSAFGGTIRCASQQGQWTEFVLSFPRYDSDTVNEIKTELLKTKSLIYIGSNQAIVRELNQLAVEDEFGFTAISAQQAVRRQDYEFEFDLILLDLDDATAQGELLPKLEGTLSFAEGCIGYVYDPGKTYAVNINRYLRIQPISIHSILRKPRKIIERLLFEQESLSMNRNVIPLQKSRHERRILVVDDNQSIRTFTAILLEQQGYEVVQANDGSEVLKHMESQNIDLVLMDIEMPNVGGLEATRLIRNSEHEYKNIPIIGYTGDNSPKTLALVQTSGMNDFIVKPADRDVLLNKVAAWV
From the text: The molecules were bioassayed in a system that exploits the V. cholerae quorum sensing circuit. The bioassay used a bacterial reporter strain to measure the QS response. Values for percent of activation correspond to the level of bioluminescence produced in the bacterial reporter strain at saturating concentrations of molecule compared to the maximal levels produced in the presence of a native autoinducer molecule (Ea-CAI-1). […] The EC50 values correspond to the concentrations that are required to activate quorum sensing to its half-maximal level.
DMSO was used as the negative control.
EC50 values were calculated by Prism 5 using standard settings and are described in the Tables and text with the error representing the 95% confidence interval for the calculated EC50 value.
The values for % response described in the Tables and text describe the maximal luminescence change for each of the analogs as a percent of EaCAI-1 or 18 (set at 100%). One of these molecules was included as a positive standard of activity for each of the assays.

[2] = test system: Vibrio cholerae strain MM920; assay: Cytotoxicity of compound 18 in V. cholerae as assessed by OD600; conditions: FIG. 9, OD600
[3] = EC50, QS agonist activity, reporter strain MM920, 4-hour incubation at 30° C.
[4] = EC50, complete bioassay data, error = 95% confidence interval
[5] = read-out: % Response, Percent maximal bioluminescence with respect to Ea-CAI-1, which is set at 100%
[6] = read-out: % Response, complete bioassay data, percent maximal bioluminescence with respect to Ea-CAI-1 (100%), error = 95% confidence interval

## CCCCCCCCCC(=O)[C@@H](O)CC [CAI-1, (S)-3-hydroxytridecan-4-one]
HapR; 10 μM of CAI-1, FIG. 3, DMSO control
  production of HapR: activate production of HapR
TcpA
  production of virulence factor TcpA: repressed

## C/C=C(\N)C(=O)CCCCC [Compound 6, (Z)-3-aminonon-2-en-4-one]
[1]; [3]
  EC50: 590 nM
[1]; [4]
  EC50: 594 ± 319 nM
[1]; [5]
  Emax: 100%
[1]; [6]
  Emax: 100 ± 57%

## C/C=C(\N)C(=O)CCCCCCC [Compound 8, (Z)-3-aminoundec-2-en-4-one]
[1]; [5]
  Emax: 109%
[1]; [6]
  Emax: 109 ± 25%

## C/C=C(\N)C(=O)CCCCCCCC [Compound 9, (Z)-3-aminododec-2-en-4-one]
[1]
  QS agonist potency (in words): low nM activity
  level of QS activation (in words): full activation
[1]; [3]
  EC50: 2.6 nM
[1]; [4]
  EC50: 2.6 ± 0.32 nM
[1]; [5]
  Emax: 112%
[1]; [6]
  Emax: 112 ± 7%

## C/C=C(\N)C(=O)CCCCCCCCCCCC [Compound 11, (Z)-3-aminohexadec-2-en-4-one]
[1]
  QS agonist potency (in words): much less active
[1]; [3]
  EC50: > 225000 nM
[1]; [4]
  EC50: > 5000 nM
[1]; [5]
  Emax: 38%
[1]; [6]
  Emax: 38%

## CCCCCCCCCC(=O)c1ccc[nH]1 [Compound 17, 1-(1H-pyrrol-2-yl)decan-1-one]
[1]
  level of QS activation (in words): full level of QS response
[1]; [4]
  EC50: 5170 nM
[1]; [6]
  Emax: 103 ± 91%

## CCCCCCCCCC(=O)c1cc[nH]c1 [Compound 18, 1-(1H-pyrrol-3-yl)decan-1-one]
HapR; 1 μM of 18, FIG. 3, DMSO control
  production of HapR: increased
[2]
  effect on bacterial growth (in words): does not inhibit bacterial growth
TcpA
  production of virulence factor TcpA: repressed

## CCCCCCCCCC(=O)c1cc(C)[nH]c1C [Compound 19, 1-(2,5-dimethyl-1H-pyrrol-3-yl)decan-1-one]
[1]
  QS agonist potency (in words): lower agonist activity
[1]; [4]
  EC50: 679 ± 92 nM
[1]; [6]
  Emax: 66 ± 14%

## CCCCCCCCCC(=O)c1c(C)c[nH]c1C [Compound 20, 1(2,4-dimethyl-1H-pyrrol-3-yl)decan-1-one]
[1]
  QS agonist potency (in words): lower agonist activity
[1]; [4]
  EC50: 536 ± 80 nM
[1]; [6]
  Emax: 65 ± 16%

## CCCCc1ccc(CCC(=O)c2cc[nH]c2)cc1 [Compound 26, 3-(4-butylphenyl)-1-(1H-pyrrol-3-yl)propan-1-one]
[1]; [4]
  EC50: 10.9 ± 4.8 nM
[1]; [6]
  Emax: 64 ± 42%

## CCCCc1ccc(CCC(=O)c2ccc[nH]2)cc1 [Compound 27, 3-(4-butylphenyl)-1-(1H-pyrrol-2-yl)propan-1-one]
[1]; [4]
  EC50: 2020 ± 1680 nM
[1]; [6]
  Emax: 75 ± 45%

## O=C(CCCCCCc1ccccc1)c1cc[nH]c1 [Compound 28, 7-phenyl-1-(1H-pyrrol-3-yl)heptan-1-one]
[1]; [4]
  EC50: 35.8 ± 6.1 nM
[1]; [6]
  Emax: 75 ± 10%

## O=C(CCCCCCc1ccccc1)c1ccc[nH]1 [Compound 29, 7-phenyl-1-(1H-pyrrol-2-yl)heptan-1-one]
[1]; [4]
  EC50: > 5000 nM
[1]; [6]
  Emax: 60%

## CCCCc1ccc(/C=C/C(=O)c2cc[nH]c2)cc1 [Compound 30, 3-(4-butylphenyl)-1-(1H-pyrrol-3-yl)prop-2-en-1-one]
[1]; [4]
  EC50: 88.4 ± 24.9 nM
[1]; [6]
  Emax: 54 ± 29%

## CCCCc1ccc(/C=C/C(=O)c2ccc[nH]2)cc1 [Compound 31, 3-(4-butylphenyl)-1-(1H-pyrrol-2-yl)prop-2-en-1-one]
[1]; [4]
  EC50: 731 ± 686 nM
[1]; [6]
  Emax: 45 ± 62%

## CCCCCCC/C=C/C(=O)c1ccc[nH]1 [Compound 33, (E)-1-(1H-pyrrol-2-yl)dec-2-en-1-one]
[1]; [4]
  EC50: 288 ± 92 nM
[1]; [6]
  Emax: 109 ± 31%

## O=C(Cc1ccc(-c2ccccc2)cc1)c1cc[nH]c1 [Compound 34, 2-([1,1′-biphenyl]-4-yl)-1-(1H-pyrrol-3-yl)ethanone]
[1]
  QS agonist potency (in words): essentially inactive
[1]; [4]
  EC50: > 5000 nM
[1]; [6]
  Emax: 25%

## O=C(Cc1ccc(-c2ccccc2)cc1)c1ccc[nH]1 [Compound 35, 2-([1,1′-biphenyl]-4-yl)-1-(1H-pyrrol-2-yl)ethanone]
[1]
  QS agonist potency (in words): essentially inactive
[1]; [4]
  EC50: > 5000 nM
[1]; [6]
  Emax: 26%

## C/C=C(\N)C(=O)CCCCCCCCC [Ea-CAI-1, (Z)-3-aminotridec-2-en-4-one, reference compound]
[1]
  QS agonist potency (in words): low nM activity
  level of QS activation (in words): full activation
[1]; [3]
  EC50: 4.1 nM
[1]; [5]
  Emax: 100%
[1]; [6]
  Emax: 100 ± 6.6%
